In patent publication US7928107B2, “Quinazolines useful as modulators of ion channels” (Vertex Pharmaceuticals Incorporated, priority 2004, dated 2011):

Target: NaV 1.8 channel (Homo sapiens, UniProt Q9Y5Y9)
Test: Activity against NaV 1.8 channel (optical membrane potential assay)
Assay type: cell-based
Summary of the method: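 FRET membrane-potential assay (coumarin CC2-DMPE donor, oxonol DiSBAC2(3) acceptor plus veratridine) on VIPR; compound added with oxonol for 20–30 min before Na+ add-back stimulation. Activity from background-subtracted 460/580 nm ratio change (baseline 2–7 s, response 15–24 s) relative to tetracaine positive and drug-free negative controls.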

Chain of NaV 1.8 channel (Q9Y5Y9 whole entry): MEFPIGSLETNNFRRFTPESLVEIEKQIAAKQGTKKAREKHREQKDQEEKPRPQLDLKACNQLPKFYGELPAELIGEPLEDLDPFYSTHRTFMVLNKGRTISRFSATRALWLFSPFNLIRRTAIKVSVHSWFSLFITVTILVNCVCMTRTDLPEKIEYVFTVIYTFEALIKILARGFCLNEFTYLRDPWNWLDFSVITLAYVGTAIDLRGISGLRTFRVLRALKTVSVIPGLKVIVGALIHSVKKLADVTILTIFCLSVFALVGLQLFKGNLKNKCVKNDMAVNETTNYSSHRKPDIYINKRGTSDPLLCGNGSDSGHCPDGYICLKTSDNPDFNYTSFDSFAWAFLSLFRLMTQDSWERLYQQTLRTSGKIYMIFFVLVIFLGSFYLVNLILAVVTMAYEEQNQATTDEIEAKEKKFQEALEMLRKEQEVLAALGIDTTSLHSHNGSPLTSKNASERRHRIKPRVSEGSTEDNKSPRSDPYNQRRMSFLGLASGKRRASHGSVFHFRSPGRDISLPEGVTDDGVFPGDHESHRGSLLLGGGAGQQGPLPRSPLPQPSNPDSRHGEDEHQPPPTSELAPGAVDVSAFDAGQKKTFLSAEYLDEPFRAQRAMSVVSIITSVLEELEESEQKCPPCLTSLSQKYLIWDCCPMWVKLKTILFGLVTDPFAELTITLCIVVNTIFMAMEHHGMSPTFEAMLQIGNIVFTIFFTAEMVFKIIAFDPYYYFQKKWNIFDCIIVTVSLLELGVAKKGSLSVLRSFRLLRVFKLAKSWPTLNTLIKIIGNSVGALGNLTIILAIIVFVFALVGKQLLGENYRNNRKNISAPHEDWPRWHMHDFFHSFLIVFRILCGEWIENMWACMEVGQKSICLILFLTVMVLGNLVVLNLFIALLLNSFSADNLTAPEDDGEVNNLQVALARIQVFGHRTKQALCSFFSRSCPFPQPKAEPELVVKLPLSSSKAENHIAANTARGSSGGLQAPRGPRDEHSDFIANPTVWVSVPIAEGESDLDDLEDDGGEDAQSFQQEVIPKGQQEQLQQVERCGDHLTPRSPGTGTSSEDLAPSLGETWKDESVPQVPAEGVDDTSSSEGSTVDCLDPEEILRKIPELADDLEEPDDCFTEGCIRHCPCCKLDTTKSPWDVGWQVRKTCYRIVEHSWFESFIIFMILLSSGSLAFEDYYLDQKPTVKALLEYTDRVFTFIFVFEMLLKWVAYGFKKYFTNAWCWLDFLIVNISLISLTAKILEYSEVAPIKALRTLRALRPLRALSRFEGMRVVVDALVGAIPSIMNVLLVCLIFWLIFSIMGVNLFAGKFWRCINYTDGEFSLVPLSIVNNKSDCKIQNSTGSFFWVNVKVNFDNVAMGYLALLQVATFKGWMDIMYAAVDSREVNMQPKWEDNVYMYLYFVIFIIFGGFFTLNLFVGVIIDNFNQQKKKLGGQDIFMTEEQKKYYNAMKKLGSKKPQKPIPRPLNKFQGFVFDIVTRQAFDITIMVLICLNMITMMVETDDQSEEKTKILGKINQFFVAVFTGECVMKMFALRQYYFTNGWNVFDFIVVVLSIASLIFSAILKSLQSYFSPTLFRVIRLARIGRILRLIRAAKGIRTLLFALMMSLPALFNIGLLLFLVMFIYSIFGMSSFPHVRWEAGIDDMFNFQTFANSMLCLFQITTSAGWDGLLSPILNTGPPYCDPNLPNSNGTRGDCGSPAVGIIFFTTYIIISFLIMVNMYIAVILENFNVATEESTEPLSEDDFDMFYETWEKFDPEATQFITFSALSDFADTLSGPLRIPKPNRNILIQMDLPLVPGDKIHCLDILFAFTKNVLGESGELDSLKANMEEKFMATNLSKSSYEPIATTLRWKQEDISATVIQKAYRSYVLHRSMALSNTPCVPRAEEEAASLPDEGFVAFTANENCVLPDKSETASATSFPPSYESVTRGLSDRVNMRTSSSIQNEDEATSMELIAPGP

**Q.** How did the IC50 turn out when `Cc1ccc2c(N3CC[C@@H](NC(=O)O[C@H]4CCOC4)C3)nc(-c3ccccc3O)nc2c1` [Example 301, (S)-Tetrahydrofuran-3-yl (R)-1-(2-(2-hydroxyphenyl)-7-methylquinazolin-4-yl)pyrrolidin-3-ylcarbamate] was run?
**A.** 2 to 10 µM

**Q.** How did the IC50 turn out when `CC(C)(C)C[C@@H](O)C(=O)N1CCN(c2nc(-c3ccccc3O)nc3ccc(F)cc23)CC1` [Example 111, (R)-1-(4-(6-Fluoro-2-(2-hydroxyphenyl)quinazolin-4-yl)piperazin-1-yl)-2-hydroxy-4,4-dimethylpentan-1-one] was run?
**A.** > 10 µM

**Q.** `Cc1ccc2c(N3CCC[C@@H](NC(=O)O[C@@H]4CCOC4)C3)nc(-c3ccccc3O)nc2c1` [Example 207, (R)-Tetrahydrofuran-3-yl (R)-1-(2-(2-hydroxyphenyl)-7-methylquinazolin-4-yl)piperidin-3-ylcarbamate] was tested. Which IC50 did it give?
**A.** < 2 µM

**Q.** Which IC50 does the source give for `Cc1ccc2c(N3CCC(CNC(=O)[C@H](O)C(C)C)CC3)nc(-c3ccccc3O)nc2c1` [Example 269] here?
**A.** > 10 µM

**Q.** With `CC(C)(C)C[C@@H](O)C(=O)N1CCN(c2nc(-c3ccccc3O)nc3ccccc23)CC1` [Example 191] as the compound, how does the IC50 read?
**A.** < 2 µM

**Q.** `COc1cccc(C(=O)N[C@@H]2CCN(c3nc(-c4ccccc4O)nc4cc(C)ccc34)C2)c1` [Example 326, N—((R)-1-(2-(2-Hydroxyphenyl)-7-methylquinazolin-4-yl)pyrrolidin-3-yl)-3-methoxybenzamide] was tested. Which IC50 did it give?
**A.** > 10 µM

**Q.** For `CCC(O)(CC)C(=O)NC1CCN(c2nc(-c3ccccc3O)nc3cc(C)ccc23)CC1` [Example 234, 2-Ethyl-2-hydroxy-N-(1-(2-(2-hydroxyphenyl)-7-methylquinazolin-4-yl)piperidin-4-yl)butanamide], which IC50 is on record?
**A.** > 10 µM

**Q.** For `Cc1ccc2c(N3CC[C@@H](NC(=O)CCN4CCCCC4)C3)nc(-c3ccccc3O)nc2c1` [Example 324], which IC50 is on record?
**A.** > 10 µM

**Q.** With `Cc1ccc2c(N3CC(C(=O)NCc4cccc(OC(F)(F)F)c4)C3)nc(-c3ccccc3O)nc2c1` [Example 403, N-(3-(Trifluoromethoxy)benzyl)-1-(2-(2-hydroxyphenyl)-7-methylquinazolin-4-yl)azetidine-3-carboxamide] as the compound, how does the IC50 read?
**A.** > 10 µM

**Q.** With `O=C(CC1CCOCC1)N1CCN(c2nc(-c3ccccc3O)nc3ccc(F)cc23)CC1` [Example 128, 1-(4-(6-Fluoro-2-(2-hydroxyphenyl)quinazolin-4-yl)piperazin-1-yl)-2-(tetrahydro-2H-pyran-4-yl)ethanone] as the compound, how does the IC50 read?
**A.** 2 to 10 µM

**Q.** For `Cc1ccc2c(N3CCC[C@H](NC(=O)O[C@@H]4CCOC4)C3)nc(-c3ccccc3O)nc2c1` [Example 203, (R)-Tetrahydrofuran-3-yl (S)-1-(2-(2-hydroxyphenyl)-7-methylquinazolin-4-yl)piperidin-3-ylcarbamate], which IC50 is on record?
**A.** > 10 µM

**Q.** How did the IC50 turn out when `Cc1ccc2c(N3CCN(C(=O)CCC4CCCC4)CC3)nc(-c3ccccc3O)nc2c1` [Example 127, 3-Cyclopentyl-1-(4-(2-(2-hydroxyphenyl)-7-methylquinazolin-4-yl)piperazin-1-yl)propan-1-one] was run?
**A.** < 2 µM

**Q.** How did the IC50 turn out when `Cc1ccc2c(N3CCC[C@H](CNC(=O)O[C@@H]4CCOC4)C3)nc(-c3ccccc3O)nc2c1` [Example 216, (R)-Tetrahydrofuran-3-yl ((R)-1-(2-(2-hydroxyphenyl)-7-methylquinazolin-4-yl)piperidin-3-yl)methylcarbamate] was run?
**A.** > 10 µM

**Q.** With `Cc1ccc2c(N3CC[C@@H](NC(=O)C4CCC(=O)N4)C3)nc(-c3ccccc3O)nc2c1` (stereo partly drawn) [Example 315, (R)-5-Oxo-pyrrolidine-2-carboxylic acid {1-[2-(2-hydroxy-phenyl)-7-methyl-quinazolin-4-yl]-pyrrolidin-3-yl}-amide] as the compound, how does the IC50 read?
**A.** > 10 µM

**Q.** For `Cc1ccc2c(N3CC[C@@H](NC(=O)c4ccncc4)C3)nc(-c3c(O)cccc3F)nc2c1` [Example 350, N—((R)-1-(2-(2-Fluoro-6-hydroxyphenyl)-7-methylquinazolin-4-yl)pyrrolidin-3-yl)isonicotinamide], which IC50 is on record?
**A.** > 10 µM

**Q.** `CCC(O)(CC)C(=O)N1CCN(c2nc(-c3ccccc3O)nc3cc(C)ccc23)CC1` [Example 122, 2-Ethyl-2-hydroxy-1-(4-(2-(2-hydroxyphenyl)-7-methylquinazolin-4-yl)piperazin-1-yl)butan-1-one] was tested. Which IC50 did it give?
**A.** 2 to 10 µM

**Q.** How did the IC50 turn out when `Cc1ccc2c(N3CCN(C(=O)C(O)C(C)C)CC3)nc(-c3ccccc3O)nc2c1` (stereo not shown) [Example 113, 2-Hydroxy-1-(4-(2-(2-hydroxyphenyl)-7-methylquinazolin-4-yl)piperazin-1-yl)-3-methylbutan-1-one] was run?
**A.** 2 to 10 µM

**Q.** `Cc1ccc2c(N3CCC(CNC(=O)C(O)C(C)C)CC3)nc(-c3ccccc3O)nc2c1` (stereo not shown) [Example 266] was tested. Which IC50 did it give?
**A.** 2 to 10 µM

**Q.** `Cc1ccc2c(N3CCN(C(=O)O[C@H]4CCOC4)CC3CO)nc(-c3ccccc3O)nc2c1` (stereo partly drawn) [Example 119, (S)-3-Hydroxymethyl-4-[2-(2-hydroxyphenyl)-7-methyl-quinazolin-4-yl]-piperazine-1-carboxylic acid tetrahydro-furan-3-yl ester] was tested. Which IC50 did it give?
**A.** > 10 µM

**Q.** `O=C(C1CC1)N1CCN(c2nc(-c3ccccc3O)nc3ccc(F)cc23)CC1` [Example 192] was tested. Which IC50 did it give?
**A.** 2 to 10 µM

**Q.** Which IC50 does the source give for `Cc1ccc2c(N3CC(CNC(=O)OC(C)C)C3)nc(-c3ccccc3O)nc2c1` [Example 420] here?
**A.** < 2 µM

**Q.** `O=C(O[C@H]1CCOC1)N1CCN(c2nc(-c3ccccc3O)nc3ccc(F)cc23)CC1` [Example 117, (S)-Tetrahydrofuran-3-yl 4-(6-fluoro-2-(2-hydroxyphenyl)quinazolin-4-yl)piperazine-1-carboxylate] was tested. Which IC50 did it give?
**A.** 2 to 10 µM

**Q.** How did the IC50 turn out when `Cc1ccc2c(N3CCN(C(=O)OCc4cccnc4)CC3)nc(-c3ccccc3O)nc2c1` [Example 132, (Pyridin-3-yl)methyl 4-(2-(2-hydroxyphenyl)-7-methylquinazolin-4-yl)piperazine-1-carboxylate] was run?
**A.** 2 to 10 µM

**Q.** How did the IC50 turn out when `Cc1ccc2c(N3CCC[C@@H](CNC(=O)OCC(C)C)C3)nc(-c3ccccc3O)nc2c1` [Example 252, Isobutyl ((S)-1-(2-(2-hydroxyphenyl)-7-methylquinazolin-4-yl)piperidin-3-yl)methylcarbamate] was run?
**A.** > 10 µM

**Q.** How did the IC50 turn out when `CSCCC(O)C(=O)N1CCN(c2nc(-c3ccccc3O)nc3cc(C)ccc23)CC1` (stereo not shown) [Example 153, 2-Hydroxy-1-(4-(2-(2-hydroxyphenyl)-7-methylquinazolin-4-yl)piperazin-1-yl)-4-(methylthio)butan-1-one] was run?
**A.** 2 to 10 µM

**Q.** For `Cc1ccc2c(N3CC[C@H](CNC(=O)O[C@H]4CCOC4)C3)nc(-c3ccccc3O)nc2c1` [Example 307, (S)-Tetrahydrofuran-3-yl ((R)-1-(2-(2-hydroxyphenyl)-7-methylquinazolin-4-yl)pyrrolidin-3-yl)methylcarbamate], which IC50 is on record?
**A.** > 10 µM

**Q.** For `Cc1ccc2c(N3CCN(C(=O)[C@H](O)CC(C)(C)C)CC3)nc(-c3c(O)cccc3F)nc2c1` [Example 135, (R)-1-(4-(2-(2-Fluoro-6-hydroxyphenyl)-7-methylquinazolin-4-yl)piperazin-1-yl)-2-hydroxy-4,4-dimethylpentan-1-one], which IC50 is on record?
**A.** < 2 µM

**Q.** With `Cc1ccc2c(N3CCC[C@@H](NC(=O)OCC(C)C)C3)nc(-c3ccccc3O)nc2c1` [Example 282] as the compound, how does the IC50 read?
**A.** < 2 µM

**Q.** For `Cc1ccc2c(N3CCC[C@H](CNC(=O)OCC(C)C)C3)nc(-c3ccccc3O)nc2c1` [Example 253, Isobutyl ((R)-1-(2-(2-hydroxyphenyl)-7-methylquinazolin-4-yl)piperidin-3-yl)methylcarbamate], which IC50 is on record?
**A.** > 10 µM

**Q.** Which IC50 does the source give for `C#CC(O)C(=O)N1CCN(c2nc(-c3ccccc3O)nc3cc(C)ccc23)CC1` (stereo not shown) [Example 158, 2-Hydroxy-1-(4-(2-(2-hydroxyphenyl)-7-methylquinazolin-4-yl)piperazin-1-yl)but-3-yn-1-one] here?
**A.** > 10 µM

**Q.** How did the IC50 turn out when `Cc1ccc2c(N3CCC(NC(=O)[C@H]4CCCO4)CC3)nc(-c3c(C)cccc3O)nc2c1` [Example 218, (2R)-Tetrahydro-N-(1-(2-(2-hydroxy-6-methylphenyl)-7-methylquinazolin-4-yl)piperidin-4-yl)furan-2-carboxamide] was run?
**A.** 2 to 10 µM

**Q.** `Cc1ccc2c(N3CCN(C(=O)[C@H](O)CC(C)C)CC3)nc(-c3c(O)cccc3F)nc2c1` [Example 147, (R)-1-(4-(2-(2-Fluoro-6-hydroxyphenyl)-7-methylquinazolin-4-yl)piperazin-1-yl)-2-hydroxy-4-methylpentan-1-one] was tested. Which IC50 did it give?
**A.** 2 to 10 µM

**Q.** For `Cc1ccc2c(N3CCC(NC(=O)[C@H](O)CC(C)C)CC3)nc(-c3ccccc3O)nc2c1` [Example 267], which IC50 is on record?
**A.** > 10 µM

**Q.** For `CCCC(O)C(=O)NC1CCN(c2nc(-c3ccccc3O)nc3ccccc23)CC1` (stereo not shown) [Example 241, 2-Hydroxy-N-(1-(2-(2-hydroxyphenyl)quinazolin-4-yl)piperidin-4-yl)pentanamide], which IC50 is on record?
**A.** > 10 µM

**Q.** How did the IC50 turn out when `Cc1ccc2c(N3CC[C@@H](NC(=O)C4CC4)C3)nc(-c3ccccc3O)nc2c1` [Example 312, (R)-Cyclopropanecarboxylic acid {1-[2-(2-hydroxy-phenyl)-7-methyl-quinazolin-4-yl]-pyrrolidin-3-yl}-amide] was run?
**A.** 2 to 10 µM

**Q.** With `C[C@@H](O)CC(=O)N1CCN(c2nc(-c3ccccc3O)nc3ccccc23)CC1` [Example 173, (R)-3-Hydroxy-1-(4-(2-(2-hydroxyphenyl)quinazolin-4-yl)piperazin-1-yl)butan-1-one] as the compound, how does the IC50 read?
**A.** > 10 µM

**Q.** How did the IC50 turn out when `Cc1ccc2c(N3CCC(CNC(=O)OC(C)C)CC3)nc(-c3ccccc3O)nc2c1` [Example 279] was run?
**A.** 2 to 10 µM

**Q.** `CC(C)(C)[C@H](O)C(=O)N1CCN(c2nc(-c3ccccc3O)nc3ccc(F)cc23)CC1` [Example 139, (S)-1-(4-(6-Fluoro-2-(2-hydroxyphenyl)quinazolin-4-yl)piperazin-1-yl)-2-hydroxy-3,3-dimethylbutan-1-one] was tested. Which IC50 did it give?
**A.** 2 to 10 µM

**Q.** For `Cc1ccc2c(N3CCCC(C(=O)NCc4cccnc4)C3)nc(-c3ccccc3O)nc2c1` (stereo not shown) [Example 201, 1-(2-(2-Hydroxyphenyl)-7-methylquinazolin-4-yl)-N-((pyridin-3-yl)methyl)piperidine-3-carboxamide], which IC50 is on record?
**A.** 2 to 10 µM

**Q.** With `CC[C@@H](O)C(=O)NC1CCN(c2nc(-c3ccccc3O)nc3ccccc23)CC1` [Example 236, (2R)-2-Hydroxy-N-(1-(2-(2-hydroxyphenyl)quinazolin-4-yl)piperidin-4-yl)butanamide] as the compound, how does the IC50 read?
**A.** > 10 µM
